Results on nine compounds are retold here after US20230250123A1, “GUT MICROBIOTA BIOACTIVATED PDE4 INHIBITOR PRECURSORS” (Giiant Pharma Inc., priority 2020, published 2023).

Molecules are shown by their SMILES.

Data set [1] can be described thus: Negative control: incubation in mouse feces extract supernatant inactivated by boiling. It is filed as in vitro ADME. Conditions: 24 hours, mouse feces supernatant boiled 10 minutes (no enzyme activities). As for the experimental part:
(§1) In vitro rate of glycoside prodrugs hydrolysis. The metabolic stability of prodrug candidates to release the parent PDE4 inhibitor could be assessed in vitro according, but not restricted, to the following protocol: feces were collected overnight on a mixture of dry and wet ice in a metabolic cage. Ten volumes (v/w; 30 mL) of 100 mM phosphate buffer (pH 6.5) were added to 3 g of freshly collected rodent feces. The mixture was homogenized with a Stomacher Circulator 400 (2 × 1 min-cycles at 225 rpm). The mixture was transferred to a 50 mL tubes, centrifuged at 10 000xg for 10 min (4° C.) and the supernatant was passed through a 0.45 µm-filter. In a 96 deep-well plate, 198 µL of feces supernatant were aliquoted in 2 wells per compound. Each compound, including positive control, was tested in duplicate. Then 2 µL of 10 mM stock solution of each test compound were spiked in individual wells (duplicate) at a final concentration of 100 µM and samples were sealed and mixed 30 sec at 1000 rpm using a vortexer. Samples were incubated at 37° C. for the desired time in the Thermomixer with constant agitation (300 rpm). At desired time-point, 25 µL of reaction mixture was added to 225 µL of ice-cold quenching solution (acetonitrile + 0.1% (v/v) formic acid) to stop the bacterial enzymatic activity. The quenched incubates were mixed and centrifuged 10 min at 21 000xg at 4° C. A real t0 (no metabolism, 100% total recovery of unchanged prodrug) was generated by adding 22.5 µL of feces supernatant to 225 µL of ice-cold quenching solution (acetonitrile + 0.1% (v/v) formic acid). Then 2.5 µL of 1 mM solution of each test compounds was added, sealed, mixed thoroughly and centrifuged 10 min at 21 000xg at 4° C. All samples, including analytical standards, were analyzed by LC-MS/MS to measure the concentration of the parent PDE4 inhibitor released and the concentration of the corresponding prodrug remaining. […]

Data set [2] is described as follows: Bidirectional Caco-2 permeability assay. It is filed as in vitro ADME. Conditions: human; Caco-2, 10 µM, apical pH 6.0 / basolateral pH 7.4, average of 2 determinations. The procedure:
In vitro glycoside prodrug permeability assessment. The permeability of the glycoside prodrugs were measured using the bidirectional Caco-2 assay. Caco-2 cells were seeded onto permeable polycarbonate supports in 12-well Costar Transwell plates and allowed to grow and differentiate for 21-25 days. On day 24, culture medium (DMEM supplemented with 10% FBS, 1% non-essential amino acids and penicillin/streptomycin) was removed from both sides of the transwell inserts and cells were rinsed with warm HBSS. […] The buffer in the donor chamber (apical side for A-to-B assay, basolateral side for B-to-A assay) was removed and replaced with the working solution (10 µM test article in transport buffer). The plates were then placed at 37° C. under light agitation. At designated time points (30, 60 and 90 min); an aliquot of transport buffer from the receiver chamber was removed and replenished with fresh transport buffer. Samples were quenched with ice-cold CH3CN containing internal standard and then centrifuged to precipitate the protein. Resulting supernatants were further diluted with 50/50 ACN/H2O (H2O only for Atenolol) and submitted for LC/MS/MS analysis. […] Atenolol and propranolol were tested as low and […] permeability references. […] The apparent permeability (Papp, measured in cm/s) of a compound is determined according to the following formula: […]
Where dQ/dt is the net rate of appearance in the receiver compartment, A is the area of the Transwell measured in cm^2 (1.12 cm^2), C0 is the initial concentration of compound added to the donor chamber and 60 is the conversion factor for the minute to second.
In general terms: Caco-2 monolayers are a common model of the intestinal barrier.

Data set [3] can be described thus: In vitro rate of glycoside prodrug hydrolysis in feces supernatant, mouse. It counts as in vitro ADME. The settings on record: 100 µM, 37° C., pH 6.5, 24 hr. As for the experimental part: (§2) In vitro rate of glycoside prodrugs hydrolysis. The metabolic stability of prodrug candidates to release the parent PDE4 inhibitor could be assessed in vitro according, but not restricted, to the following protocol: feces were collected overnight on a mixture of dry and wet ice in a metabolic cage. Ten volumes (v/w; 30 mL) of 100 mM phosphate buffer (pH 6.5) were added to 3 g of freshly collected rodent feces. The mixture was homogenized with a Stomacher Circulator 400 (2 × 1 min-cycles at 225 rpm). The mixture was transferred to a 50 mL tubes, centrifuged at 10 000xg for 10 min (4° C.) and the supernatant was passed through a 0.45 µm-filter. In a 96 deep-well plate, 198 µL of feces supernatant were aliquoted in 2 wells per compound. Each compound, including positive control, was tested in duplicate. Then 2 µL of 10 mM stock solution of each test compound were spiked in individual wells (duplicate) at a final concentration of 100 µM and samples were sealed and mixed 30 sec at 1000 rpm using a vortexer. Samples were incubated at 37° C. for the desired time in the Thermomixer with constant agitation (300 rpm). At desired time-point, 25 µL of reaction mixture was added to 225 µL of ice-cold quenching solution (acetonitrile + 0.1% (v/v) formic acid) to stop the bacterial enzymatic activity. The quenched incubates were mixed and centrifuged 10 min at 21 000xg at 4° C. A real t0 (no metabolism, 100% total recovery of unchanged prodrug) was generated by adding 22.5 µL of feces supernatant to 225 µL of ice-cold quenching solution (acetonitrile + 0.1% (v/v) formic acid). Then 2.5 µL of 1 mM solution of each test compounds was added, sealed, mixed thoroughly and centrifuged 10 min at 21 000xg at 4° C. All samples, including analytical standards, were analyzed by LC-MS/MS to measure the concentration of the parent PDE4 inhibitor released and the concentration of the corresponding prodrug remaining. A set criteria of 100% recovery is targeted where the summation of the % of prodrug remaining and the % of parent PDE4 inhibitor released should be 100% with an experimental error tolerance of ± 20%. When prodrugs represented by Formula (I) were incubated 24 hours under the conditions described above using mouse, rat and dog feces, the glycoside prodrugs were hydrolyzed to release the corresponding parent PDE4 inhibitor III (Table 3). As a negative control, when compound 4, 10 and 21 were incubated 24 hours under the conditions described above but in the absence of enzyme activities, using mouse feces extract supernatant inactivated by boiling the supernatant 10 minutes, 100% of the prodrugs were recovered unchanged.

Data set [4] can be described thus: In vitro rate of glycoside prodrug hydrolysis in feces supernatant, rat. It counts as in vitro ADME. Conditions: 100 µM, 37° C., pH 6.5, 24 hr. As for the experimental part: as §2
For data set [5], the system named is β-D-glucuronidase. The experiment in a line: Positive control: incubation with β-D-glucuronidase in phosphate buffer. The settings on record: β-D-glucuronidase 50U/mL, phosphate buffer pH 6.5, 37° C., 24 hours. It counts as in vitro ADME.
For data set [6], the system named is type-IV cAMP-specific phosphodiesterases. In words: Inhibitory potency against PDE4 isozymes (isozyme not given). Conditions: sample contaminated with 0.17% of IIIa, which accounts for 100% of the potency recorded; read-out: IC50 (PDE4, isozyme not stated). It counts as biochemical.
The nature of data set [7]: In vitro rate of glycoside prodrug hydrolysis in feces supernatant, dog. The settings on record: 100 µM, 37° C., pH 6.5, 24 hr. It is filed as in vitro ADME. The procedure: as §1, with “At desired time-point, 25 µL of reaction mixture was added to 225 µL of ice-cold quenching solution (acetonitrile + 0.1% (v/v) formic acid) to stop the bacterial enzymatic activity. The quenched incubates were mixed and centrifuged 10 min at 21 000xg at 4° C. A real t0 (no metabolism, 100% total recovery of unchanged prodrug) was generated by adding 22.5 µL of feces supernatant to 225 µL of ice-cold quenching solution (acetonitrile + 0.1% (v/v) formic acid). Then 2.5 µL of 1 mM solution of each test compounds was added, sealed, mixed thoroughly and centrifuged 10 min at 21 000xg at 4° C.” left out

The test system of data set [8] is LPS-induced TNFα in human whole blood. The experiment in a line: LPS-induced TNFα assay in human whole blood. It is filed as cell-based. Conditions: human whole blood from 12 healthy volunteers, LPS 1 µg/mL, 24 h; read-out: average IC50, TNFα inhibition.
Experimental: TNFα inhibition assay protocol. Potency of PDE4 inhibitors in the LPS-induced TNFα assay in human whole blood was measured using the following protocol: fresh blood is collected in heparinized tubes by venipuncture from healthy human volunteers (male and female). These subjects should not have apparent inflammatory conditions, no symptoms of bacterial/viral infection, no fever and should not take any NSAIDs for at least 1 week prior to blood collection. Blood from each donor was dispensed in a 96-deep well plate, 500 µL per well. Blood was pre-incubated with either 2 µL of vehicle (DMSO) or test compound at 37° C. /5% CO2 for 15 min. […] Duplicate independent incubations were performed for each inhibitor concentration with blood from each donor. Appropriate PBS controls (no LPS) were used as blanks (4 wells) while blood samples stimulated with LPS controls (no PDE4 inhibitor) served as positive controls (4 wells). […] Plasma TNFα was quantified by ELISA (Invitrogen, Frederick, MD, USA) following the manufacturer’s instructions. […] Assay plates were read on an Infinite F200 PRO-Tecan reader at 450 nm. Absorbance values were converted to % inhibition based on positive and negative control values on each plate, and resulting % inhibition data were fit to a four-parameter logistic by nonlinear regression using GraphPad Prism (version 6.00, GraphPad Software, Inc., La Jolla, CA, USA). […]
Data set [9] concerns the target PDE4B1 (Homo sapiens, UniProt Q07343). The experiment in a line: Inhibitory potency against PDE4 isozymes (FAM-cAMP fluorescence polarization), PDE4B1. On the technique in general: In fluorescence polarisation assays a small probe gives low polarisation when free and higher when bound to something large.
The target in data set [10] is PDE4D2 (Homo sapiens, UniProt Q08499). In words: Inhibitory potency against PDE4 isozymes (FAM-cAMP fluorescence polarization), PDE4D2.
For data set [11], the target named is PDE4A1A (Homo sapiens, UniProt P27815). In words: Inhibitory potency against PDE4 isozymes (FAM-cAMP fluorescence polarization), PDE4A1A.
Chain of PDE4A1A (P27815 1-647 isoform P27815-4): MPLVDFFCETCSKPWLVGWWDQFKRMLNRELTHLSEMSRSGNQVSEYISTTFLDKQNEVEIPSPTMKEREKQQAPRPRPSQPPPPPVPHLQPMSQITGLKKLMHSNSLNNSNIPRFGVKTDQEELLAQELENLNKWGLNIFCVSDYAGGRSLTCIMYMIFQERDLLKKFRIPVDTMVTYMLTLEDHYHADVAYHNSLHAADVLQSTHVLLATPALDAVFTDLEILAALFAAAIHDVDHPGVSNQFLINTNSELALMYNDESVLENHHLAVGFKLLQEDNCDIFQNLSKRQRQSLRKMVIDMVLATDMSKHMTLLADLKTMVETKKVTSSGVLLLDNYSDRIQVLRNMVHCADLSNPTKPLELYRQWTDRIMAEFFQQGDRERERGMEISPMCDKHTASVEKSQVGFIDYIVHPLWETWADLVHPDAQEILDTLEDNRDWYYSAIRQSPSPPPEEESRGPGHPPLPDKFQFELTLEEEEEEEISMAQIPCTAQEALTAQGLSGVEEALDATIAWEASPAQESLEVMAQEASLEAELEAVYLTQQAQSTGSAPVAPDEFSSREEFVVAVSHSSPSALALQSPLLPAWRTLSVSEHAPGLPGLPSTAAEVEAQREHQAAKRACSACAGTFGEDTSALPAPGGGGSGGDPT

Chain of PDE4B1 (Q07343 whole entry, species assumed): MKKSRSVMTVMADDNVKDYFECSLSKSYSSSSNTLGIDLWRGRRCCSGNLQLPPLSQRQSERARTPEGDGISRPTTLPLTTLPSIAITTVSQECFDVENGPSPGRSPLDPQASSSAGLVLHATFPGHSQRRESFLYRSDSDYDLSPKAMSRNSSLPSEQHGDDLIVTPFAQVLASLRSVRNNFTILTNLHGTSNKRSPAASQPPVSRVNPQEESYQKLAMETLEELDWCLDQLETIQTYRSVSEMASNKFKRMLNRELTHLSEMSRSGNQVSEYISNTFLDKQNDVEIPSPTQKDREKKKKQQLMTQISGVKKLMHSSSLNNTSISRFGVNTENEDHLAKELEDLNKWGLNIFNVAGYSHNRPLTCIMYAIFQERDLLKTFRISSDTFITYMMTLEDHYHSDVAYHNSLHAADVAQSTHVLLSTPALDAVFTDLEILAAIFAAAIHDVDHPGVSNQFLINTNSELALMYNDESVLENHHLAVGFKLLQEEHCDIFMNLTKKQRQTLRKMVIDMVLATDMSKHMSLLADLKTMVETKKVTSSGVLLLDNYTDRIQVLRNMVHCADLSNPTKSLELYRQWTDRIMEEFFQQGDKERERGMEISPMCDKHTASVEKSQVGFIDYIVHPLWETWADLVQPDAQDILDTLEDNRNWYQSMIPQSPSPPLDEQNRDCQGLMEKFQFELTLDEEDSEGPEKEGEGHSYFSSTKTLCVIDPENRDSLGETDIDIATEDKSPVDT
Chain of PDE4D2 (Q08499 303-809 limits assumed): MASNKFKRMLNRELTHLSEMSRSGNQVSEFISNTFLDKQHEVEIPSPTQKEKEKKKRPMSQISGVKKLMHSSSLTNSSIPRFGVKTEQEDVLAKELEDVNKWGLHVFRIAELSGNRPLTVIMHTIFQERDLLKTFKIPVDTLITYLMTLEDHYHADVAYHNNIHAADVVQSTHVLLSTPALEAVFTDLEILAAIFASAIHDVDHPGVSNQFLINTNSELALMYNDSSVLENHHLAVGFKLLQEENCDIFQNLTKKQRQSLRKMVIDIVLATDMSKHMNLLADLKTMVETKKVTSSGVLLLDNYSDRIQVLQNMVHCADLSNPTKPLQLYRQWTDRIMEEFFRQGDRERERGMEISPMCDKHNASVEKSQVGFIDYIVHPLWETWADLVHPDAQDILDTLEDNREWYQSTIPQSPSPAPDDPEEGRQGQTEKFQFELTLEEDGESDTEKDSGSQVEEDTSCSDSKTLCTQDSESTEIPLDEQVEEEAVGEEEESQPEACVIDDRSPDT

Regarding `CC(C)(O)c1ccc([C@@H](Cc2ccc(OC3O[C@H](CO)[C@@H](O)[C@H](O)[C@H]3N)nc2)c2ccc(OC(F)F)c(OC3CC3)c2)cn1` (mixture of isomers) [Compound 21, (2R,3S,4R,5R)-5-amino-6-((5-((S)-2-(3-cyclopropoxy-4-(difluoromethoxy)phenyl)-2-(6-(2-hydroxypropan-2-yl)pyridin-3-yl)ethyl)pyridin-2-yl)oxy)-2-(hydroxymethyl)tetrahydro-2H-pyran-3,4-diol], the prodrug recovered unchanged in data set [1] is on record as 100%.

On to `CC(C)(O)c1ccc([C@@H](Cc2ccc(O[C@@H]3O[C@H](CO)[C@@H](O)[C@H](O)[C@H]3O)nc2)c2ccc(OC(F)F)c(OC3CC3)c2)cn1` [Compound 4, (2S,3R,4S,5S,6R)-2-((5-((S)-2-(3-cyclopropoxy-4-(difluoromethoxy)phenyl)-2-(6-(2-hydroxypropan-2-yl)pyridin-3-yl)ethyl)pyridin-2-yl)oxy)-6-(hydroxymethyl)tetrahydro-2H-pyran-3,4,5-triol], for which, in data set [1], the prodrug recovered unchanged came out at 100%. Besides, in [2], the Papp A→B – broadly, how fast a substance crosses the layer from the apical side – at 10 µM is 0.08 ×10⁻⁶ cm/s. Further, the “Prodrug Remaining @ 24 hr (%)” value is 0.1% in data set [3] and 0.0% in data set [4].

In [2], `CC(=O)OC[C@H]1O[C@@H](Oc2ccc(C[C@H](c3ccc(C(C)(C)O)nc3)c3ccc(OC(F)F)c(OC4CC4)c3)cn2)[C@H](O)[C@@H](OC(C)=O)[C@@H]1OC(C)=O` [Compound 5, (2R,3R,4R,5R,6S)-2-(acetoxymethyl)-6-((5-((S)-2-(3-cyclopropoxy-4-(difluoromethoxy)phenyl)-2-(6-(2-hydroxypropan-2-yl)pyridin-3-yl)ethyl)pyridin-2-yl)oxy)-5-hydroxytetrahydro-2H-pyran-3,4-diyl diacetate] gave a Papp A→B at 10 µM of 0.9 ×10⁻⁶ cm/s. Further, the “Prodrug Remaining @ 24 hr (%)” value in data set [3] and in data set [4] was 0.0% throughout.

With `CC(C)(O)c1ccc([C@@H](Cc2ccc(O[C@@H]3O[C@H](C(=O)[O-])[C@@H](O)[C@H](O)[C@H]3O)nc2)c2ccc(OC(F)F)c(OC3CC3)c2)cn1.[Li+]` [Compound 9, lithium (2S,3S,4S,5R,6S)-6-((5-((S)-2-(3-cyclopropoxy-4-(difluoromethoxy)phenyl)-2-(6-(2-hydroxypropan-2-yl)pyridin-3-yl)ethyl)pyridin-2-yl)oxy)-3,4,5-trihydroxytetrahydro-2H-pyran-2-carboxylate], the prodrug recovered unchanged in data set [5] is listed as 2%. Moreover, the “Prodrug Remaining @ 24 hr (%)” value in [3] is 3.3%; in data set [4], 4.2%.

In turn, `N[C@H]1[C@H](Oc2ccc(C[C@@H](c3ccc(OC(F)F)c(OC4CC4)c3)c3cnc(C(O)(C(F)(F)F)C(F)(F)F)s3)cn2)O[C@H](CO)[C@@H](O)[C@@H]1O` [Compound 22, (2R,3S,4R,5R,6S)-5-amino-6-((5-((S)-2-(3-cyclopropoxy-4-(difluoromethoxy)phenyl)-2-(2-(1,1,1,3,3,3-hexafluoro-2-hydroxypropan-2-yl)thiazol-5-yl)ethyl)pyridin-2-yl)oxy)-2-(hydroxymethyl)tetrahydro-2H-pyran-3,4-diol] had a Papp A→B at 10 µM in data set [2] of 0.2 ×10⁻⁶ cm/s. Besides, the “Prodrug Remaining @ 24 hr (%)” value in [3] is 62%. For the same compound, in data set [6], the IC50 (usually the concentration at which inhibition is half-maximal) is greater than 100 nM.

`CC(C)(O)c1ccc([C@@H](Cc2ccc(O[C@@H]3O[C@H](CO)[C@@H](O)[C@H](O)[C@H]3N)nc2)c2ccc(OC(F)F)c(OC3CC3)c2)cn1` [Compound 23, (2R,3S,4R,5R,6S)-5-amino-6-((5-((S)-2-(3-cyclopropoxy-4-(difluoromethoxy)phenyl)-2-(6-(2-hydroxypropan-2-yl)pyridin-3-yl)ethyl)pyridin-2-yl)oxy)-2-(hydroxymethyl)tetrahydro-2 H-pyran-3,4-diol]: the “Prodrug Remaining @ 24 hr (%)” value in [7] amounted to 75%; in [3], 65%.

In data set [2], `C[N+](C)(C)[C@H]1[C@H](Oc2ccc(C[C@@H](c3ccc(OC(F)F)c(OC4CC4)c3)c3cnc(C(O)(C(F)(F)F)C(F)(F)F)s3)cn2)O[C@H](CO)[C@@H](O)[C@@H]1O.[I-]` [Compound 26, (2S,3R,4R,5S,6R)-2-((5-((S)-2-(3-cyclopropoxy-4-(difluoromethoxy)phenyl)-2-(2-(1,1,1,3,3,3-hexafluoro-2-hydroxypropan-2-yl)thiazol-5-yl)ethyl)pyridin-2-yl)oxy)-4,5-dihydroxy-6-(hydroxymethyl)-N,N,N-trimethyltetrahydro-2H-pyran-3-aminium iodide] showed a Papp A→B at 10 µM of 2.8 ×10⁻⁶ cm/s. The “Prodrug Remaining @ 24 hr (%)” value in data set [3] is 96%.

With `CC(C)(O)c1ccc([C@@H](Cc2ccc(O[C@@H]3O[C@H](CO)[C@@H](O[C@@H]4O[C@H](CO)[C@@H](O)[C@H](O)[C@H]4O)[C@H](O)[C@H]3O)nc2)c2ccc(OC(F)F)c(OC3CC3)c2)cn1` [Compound 31, (2S,3R,4S,5S,6R)-2-(((2R,3S,4R,5R,6S)-6-((5-((S)-2-(3-cyclopropoxy-4-(difluoromethoxy)phenyl)-2-(6-(2-hydroxypropan-2-yl)pyridin-3-yl)ethyl)pyridin-2-yl)oxy)-4,5-dihydroxy-2-(hydroxymethyl)tetrahydro-2H-pyran-3-yl)oxy)-6-(hydroxymethyl)tetrahydro-2H-pyran-3,4,5-triol], the Papp A→B at 10 µM in data set [2] was 0.02 ×10⁻⁶ cm/s. For the same compound, the “Prodrug Remaining @ 24 hr (%)” value in [4] is 0.6%.

`O=c1ccc(C[C@@H](c2ccc(OC(F)F)c(OC3CC3)c2)c2cnc(C(O)(C(F)(F)F)C(F)(F)F)s2)c[nH]1` [IIIa, (S)-5-(2-(3-cyclopropoxy-4-(difluoromethoxy)phenyl)-2-(2-(1,1,1,3,3,3-hexafluoro-2-hydroxypropan-2-yl)thiazol-5-yl)ethyl)pyridin-2(1H)-one]: the IC50 in [8] was less than 50 nM; in [9], less than 10 nM; in data set [10], less than 10 nM; in data set [11], less than 10 nM. The same compound registered a Papp A→B at 10 µM in data set [2] of 19.1 ×10⁻⁶ cm/s.
